From patent US6395780B1, “Cleavage system inhibitors as potential antipsychotics” (Merck Patent GmbH, priority 1999, dated 2002)
“Also recorded” adds a separate entry of the source. Where two headings read alike, the source gives them in different places.

Tests used:
[1] = tested on: apomorphine-induced climbing behavior; experiment: apomorphine-induced climbing test in mice; assay type: in vivo; details: for inhibition of apomorphine-induced climbing behavior: apomorphine 1.25 mg/kg subcutaneously
Excerpt: Although the complex interaction of glycine with the neurotransmitter dopamine is not yet fully understood, the counterbalancing effects (symmetric bilateral changes) of glycine and dopamine, at least in part via GABAergic and cholinergic interneurons, in the central nervous system are well known for long ([…] et al., 1978; Giorguieff et al., 1979; […] et al., 1979; Schmidt and […] et al., 1998). Dopamine antagonists are the classic antischizophrenic drugs, and conventional animal models to test for antischizophrenic drugs with a dopaminergic mechanism of action use the induction of stereotyped behaviours such as climbing behavior in mice by the application of dopamine-agonistic drugs such as apomorphine (Protais et al., 1976; Puech et al., 1978). […] Therefore the model compound cysteamine at the doses indicated before are investigated in the climbing test in mice, too.

[2] = tested on: PCP-induced disruption of PPI; experiment: PCP-induced disruption of prepulse inhibition (PPI); assay type: in vivo, rats
Excerpt: For the PCP-induced disruption of PPI we use a commercially available standard equipment (Coulbourn Instruments, USA) consisting of a sound attenuated test box equipped with a startle response measuring unit connected to a microcomputer; a white noise generator applies a constant level of back ground noise during the experiment. After a habituation period, a series of 70 combinations of prepulses (no prepulse or […] above back ground noise) and pulses (90 to 126 dB) is randomly applied to the rats. […] In control animals, presentation of the prepulse inhibits the startle response elicited by the pulse alone. PCP at the indicated doses induces a disruption of PPI by a maximum of about 70% compared to control animals. The doses indicated above are used for valproate and cysteamine, administered before the PCP challenge.

glycine levels = details: i.p. 250 mg/kg in 8 day old rats (Iwama 1997); cited from earlier work
[3] = tested on: PCP-induced hyperlocomotion; experiment: PCP-induced hyperlocomotion model; assay type: in vivo
Procedure: For the PCP-induced hyperlocomotion model we use a test apparatus consisting of a clear plexiglass box (45 cm×45 cm) equipped with two series of equally spaced infrared beam lights controlling X-Y axes and connected to a microcomputer. Measured automatically are the distance (way) traveled [m], and the time spent with locomotion or resting [sec] in intervals of 30 min over a total of 90 minutes following PCP administration. […] PCP at the indicated dose induces excessive locomotor behavior with an increase of about 200-250% measured by either locomotion distance or time compared to control animals.

[4] = tested on: negative symptoms in schizophrenic patients; details: cited from earlier work
[5] = tested on: hyperlocomotion induced by PCP or related drugs; details: PCP or related drugs as challenge stimulants, rodents; cited from earlier work
[6] = biological target: T1, Glycine Cleavage System (GCS) (Homo sapiens, UniProt P09622+P23378+P23434+P48728); details: liver mitochondria; read-out: Ki for GCS inhibition; cited from earlier work
[7] = biological target: T1, Glycine Cleavage System (GCS); details: brain mitochondria; read-out: Ki for GCS inhibition; cited from earlier work
[8] = biological target: T1, Glycine Cleavage System (GCS); details: Benavides 1983; cited from earlier work
negative symptoms = details: cited from earlier work

T1 sequence (P23378 36-1020): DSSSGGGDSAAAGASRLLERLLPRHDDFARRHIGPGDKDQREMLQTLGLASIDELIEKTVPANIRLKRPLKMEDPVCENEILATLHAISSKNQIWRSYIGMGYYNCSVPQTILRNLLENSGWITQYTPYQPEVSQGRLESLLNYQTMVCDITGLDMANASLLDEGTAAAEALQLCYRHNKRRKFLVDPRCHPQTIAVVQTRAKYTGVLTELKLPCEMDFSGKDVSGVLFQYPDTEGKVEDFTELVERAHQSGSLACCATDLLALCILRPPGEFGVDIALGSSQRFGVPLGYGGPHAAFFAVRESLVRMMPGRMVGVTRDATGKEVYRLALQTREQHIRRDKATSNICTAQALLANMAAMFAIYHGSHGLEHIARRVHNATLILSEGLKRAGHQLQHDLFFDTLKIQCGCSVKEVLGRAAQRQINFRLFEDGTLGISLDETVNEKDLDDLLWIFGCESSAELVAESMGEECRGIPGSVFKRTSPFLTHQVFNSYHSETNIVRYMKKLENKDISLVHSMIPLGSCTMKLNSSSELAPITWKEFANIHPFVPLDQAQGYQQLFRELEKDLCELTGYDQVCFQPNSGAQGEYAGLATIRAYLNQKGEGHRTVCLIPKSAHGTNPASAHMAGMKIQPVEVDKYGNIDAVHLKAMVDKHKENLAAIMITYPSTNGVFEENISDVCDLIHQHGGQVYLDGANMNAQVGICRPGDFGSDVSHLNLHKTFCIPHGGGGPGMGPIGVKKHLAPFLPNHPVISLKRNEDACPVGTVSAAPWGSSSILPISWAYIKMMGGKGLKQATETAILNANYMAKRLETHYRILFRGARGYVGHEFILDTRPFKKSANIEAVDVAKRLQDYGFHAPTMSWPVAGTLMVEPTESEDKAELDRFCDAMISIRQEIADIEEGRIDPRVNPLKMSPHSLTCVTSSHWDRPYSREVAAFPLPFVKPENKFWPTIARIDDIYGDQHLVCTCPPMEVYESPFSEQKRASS
T1 sequence (P48728 29-403): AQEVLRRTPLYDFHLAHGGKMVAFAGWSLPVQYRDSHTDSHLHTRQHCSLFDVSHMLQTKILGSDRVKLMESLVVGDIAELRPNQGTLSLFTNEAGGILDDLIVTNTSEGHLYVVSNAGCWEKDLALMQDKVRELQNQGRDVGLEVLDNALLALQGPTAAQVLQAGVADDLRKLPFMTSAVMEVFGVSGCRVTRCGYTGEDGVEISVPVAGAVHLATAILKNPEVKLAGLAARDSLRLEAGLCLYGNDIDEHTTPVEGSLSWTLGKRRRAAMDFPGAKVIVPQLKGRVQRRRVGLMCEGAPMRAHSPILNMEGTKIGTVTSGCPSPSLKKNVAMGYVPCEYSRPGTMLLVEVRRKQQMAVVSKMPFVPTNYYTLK
T1 sequence (P23434 49-173): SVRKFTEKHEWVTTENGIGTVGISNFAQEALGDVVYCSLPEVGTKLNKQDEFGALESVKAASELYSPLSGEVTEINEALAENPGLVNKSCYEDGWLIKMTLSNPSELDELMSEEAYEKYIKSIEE
T1 sequence (P09622 36-509): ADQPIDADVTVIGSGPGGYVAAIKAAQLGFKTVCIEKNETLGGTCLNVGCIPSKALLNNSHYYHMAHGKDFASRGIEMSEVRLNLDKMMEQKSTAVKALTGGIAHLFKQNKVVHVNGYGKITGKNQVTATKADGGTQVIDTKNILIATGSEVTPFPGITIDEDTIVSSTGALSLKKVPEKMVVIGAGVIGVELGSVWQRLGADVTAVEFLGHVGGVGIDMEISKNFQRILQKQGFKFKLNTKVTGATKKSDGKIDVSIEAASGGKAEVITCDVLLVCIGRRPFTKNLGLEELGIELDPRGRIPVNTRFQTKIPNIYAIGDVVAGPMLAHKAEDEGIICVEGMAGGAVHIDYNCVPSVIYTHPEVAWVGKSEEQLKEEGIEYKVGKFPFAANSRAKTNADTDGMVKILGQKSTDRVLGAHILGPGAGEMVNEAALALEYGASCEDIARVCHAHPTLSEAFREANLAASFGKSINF

## NCCS [Cysteamine]
[1]; Mus musculus, given prior to the apomorphine challenge, read-out: ED50 (dose which inhibits apomorphine-induced climbing by 50%)
  ED50: 500 mg/kg
[2]; 100 to 500 mg/kg parenterally before PCP 1-5 mg/kg s.c., different prepulse/pulse combinations
  effect on PCP-induced disruption of PPI: reverse PCP-induced disruption of PPI
Glycine levels
  glycine in the cortex, % of control animals: 360%
[3]; 100 to 500 mg/kg parenterally before PCP 5 mg/kg i.p., distance traveled and locomotion time over 90 min
  effect on PCP-induced hyperlocomotion: reduction of PCP-induced hyperlocomotion; also recorded: reduce PCP-induced hyperlocomotion

## N[C@@H]1CONC1=O [D-cycloserine]
[1]
  inhibition of apomorphine-induced climbing behavior: inhibited
[4]; 50 mg/d along with effective dose of antipsychotics, double blind, placebo-controlled (Goff 1999)
  negative symptoms: improvement in negative symptoms
[4]; 50 mg/d, trial assessing 15 to 250 mg/d (Goff 1995)
  negative symptoms in schizophrenic patients: reduced negative symptoms
[5]
  efficacy in the hyperlocomotion model: repeatedly demonstrated

## CCCCCCCCCCCCNC(=O)CN [GDA, glycyldodecylamide]
[1]
  inhibition of apomorphine-induced climbing behavior: inhibited
[5]
  efficacy in the hyperlocomotion model: repeatedly demonstrated

## c1ccc(C2(N3CCCCC3)CCCCC2)cc1 [PCP, phencyclidine]
[2]; PCP 1-5 mg/kg subcutaneously
  disruption of PPI compared to control animals (maximum): about 70%
[3]; PCP 5 mg/kg intraperitoneally
  increase of locomotor behavior (distance or time) compared to control animals: 200-250%

## N[C@@H]1CCN(O)C1=O [R-(+)-HA-966, R-(+)-3-amino-1-hydroxypyrrolid-2-one]
[5]
  efficacy in the hyperlocomotion model: repeatedly demonstrated

## CCCC(CCC)C(=O)O [Valproate]
[6]
  Ki: 590 µM
[7]
  Ki: 2000 µM

## N#CCN [aminoacetonitrile]
[8]
  GCS inhibition (in words): weak inhibitors

## NCC(=O)O [glycine]
[5]
  efficacy in the hyperlocomotion model: repeatedly demonstrated
Negative symptoms; 0.4 g/kg and 0.8 g/kg glycine orally along with usual antipsychotic medication
  side effects: No changes
Negative symptoms; 0.4 g/kg glycine orally along with usual antipsychotic medication
  amelioration of negative symptoms: 15%
Negative symptoms; 0.8 g/kg glycine orally along with usual antipsychotic medication
  amelioration of negative symptoms: 30%

## C#CCN [propargylamine]
[8]
  GCS inhibition (in words): weak inhibitors
